Measured values published in US8598413B2, “AAD-1 event DAS-40278-9, related transgenic corn lines, event-specific identification thereof, and methods of weed control involving AAD-1” (Dow AgroSciecnes, LLC., priority 2009, dated 2013).

Assays:
[1] = tested on: hybrid corn containing pDAS1740-278; assay: Field tolerance to preemergence applications of 2,4-D (Example 13, Table 31); assay type: in vivo; details: PRE (0-2 days after planting), evaluated 16-21 days after application, pDAS1740-278 Hybrid
Protocol: (§1) Transgenic hybrid corn (pDAS1740-278) containing the aad-1 gene which encodes the aryloxyalkanoate dioxygenase (AAD-1) protein was evaluated for tolerance to preemergence applications of 2,4-D in the field. Trials were conducted at multiple locations in Mississippi, Indiana, and Minnesota using a randomized complete block design with three replications of two row plots, approximately 6 m in length, at each site. Herbicide-treated plots were paired with untreated plots to provide accurate evaluation of emergence and early season growth. Herbicide treatments of 1120, 2240, and 4480 g ae/ha of 2,4-D amine were applied shortly after planting but before crop emergence (0-2 days after planting). Soil and precipitation information for these trials is contained in Table 30.

[2] = tested on: hybrid corn containing the aad-1 gene; assay: 2,4-D amine applied 7, 15 or 30 days preplanting, corn (Example 13); assay type: in vivo; details: 1120, 2240, 4480 g ae/ha at 7, 15 or 30 days preplanting
Source text: Preemergence applications of 2,4-D amine are applied at rates of 1120, 2240, 4480 g ae/ha at 7 days, 15 days, or 30 days preplanting to hybrid corn containing the aad-1 gene and conventional control hybrids. The preemergence applications are applied using art recognized procedures to field plots which are located at geographically distinct locales. Herbicide-treated plots are paired with untreated plots to provide accurate evaluation of emergence and early season growth. Approximately 16-21 days after planting and 2,4-D applications at 7, 15 or 30 days preplanting; injury of the conventional control hybrids and hybrid corn containing aad-1 are measured.

[3] = tested on: transgenic cotton containing the aad-1 gene; assay: Field tolerance of aad-1 cotton to preemergence applications of 2,4-D (Example 13); assay type: in vivo
Protocol: Transgenic cotton containing the aad-1 gene which encodes the aryloxyalkanoate dioxygenase (AAD-1) protein was evaluated for tolerance to preemergence applications of 2,4-D in the field. Trials consisted of three replications and were conducted at multiple locations in Mississippi, Georgia, Tennessee, and Arkansas. A randomized complete block design of a single row separated by a guard row, approximately 10 feet (20 feet for the Mississippi trial) in length was used. Seed was planted using 8 seed per foot, plants were then hand thinned to 3.5 plants/foot of row. Herbicide-treated plots were paired with untreated plots to provide accurate evaluation of emergence and early season growth. All plots received at least ½ inch of rain or irrigation water within 24 hours of application. Herbicide treatments of 560, 1120, 2240, and 4480 g ae/ha of 2,4-D amine (WEEDAR 64, Nufarm, Burr Ridge, Ill.) were applied shortly after planting but before crop emergence. Soil and precipitation information for these trials is contained in Table 32.

[4] = tested on: conventional control hybrid; assay: Field tolerance to preemergence applications of 2,4-D (Example 13, Table 31); assay type: in vivo, corn; details: PRE (0-2 days after planting), evaluated 16-21 days after application
Protocol: as §1

[5] = preemergence 560, 1120, 2240 and 4480 gm ae/ha

## O=C(O)COc1ccc(Cl)cc1Cl [2,4-D, 2,4-dichlorophenoxyacetic acid]
[1]; 1120 g ae/ha
  Percent Plant Injury: 3%
[1]; 2240 g ae/ha
  Percent Plant Injury: 4%
[1]; 4480 g ae/ha
  Percent Plant Injury: 9%
[2]
  tolerance of preemergence treatments: robust tolerance
[3]; 560, 1120, 2240 and 4480 gm ae/ha, remainder of the season
  Chlorosis: not detected
[3]; 560 and 1120 gm ae/ha
  Injury: not significantly different from the untreated control plot
[3]; 560 and 1120 gm ae/ha, 7 to 8, 11 to 14, 27 to 30 and 52 to 57 days after application
  growth inhibition: less than 2%
[3]; 560 and 1120 gm ae/ha, 7 to 8 days after application
  Chlorosis: not detected
[3]; 560 gm ae/ha, 7 to 8 days after planting and preemergence application
  stand reduction: 3%
[3]; 560 gm ae/ha, 11 to 14 days after planting and application
  stand reduction: 5%
[3]; 1120 gm ae/ha, 7 to 8 days after planting and preemergence application
  stand reduction: no reduction
[3]; 1120 gm ae/ha, 11 to 14 days after planting and application
  stand reduction: 2%
[3]; 2240 and 4480 gm ae/ha, 7-8 days after application
  Chlorosis, visual rating: < 5%
[3]; 2240 gm ae/ha
  growth inhibition: < 10%
[3]; 2240 gm ae/ha, 7 to 8 days after planting and preemergence application
  stand reduction: 19%
[3]; 2240 gm ae/ha, 11 to 14 days after planting and application
  stand reduction: 14%
[3]; 4480 gm ae/ha, 7 to 8 days after application
  growth inhibition: 27%
[3]; 4480 gm ae/ha, 7 to 8 days after planting and preemergence application
  stand reduction: 34%
[3]; 4480 gm ae/ha, 11 to 14 days after application
  growth inhibition: 28%
[3]; 4480 gm ae/ha, 11 to 14 days after planting and application
  stand reduction: 25%
[3]; 4480 gm ae/ha, 27 to 30 days after application
  growth inhibition: 17%
[3]; 4480 gm ae/ha, 52 to 57 days after application
  growth inhibition: 8.3%
[3]; [5]
  Differences in plant height, fruiting pattern, and yield: not detected
  epinasty: did not cause epinasty
[3]; preemergence 560, 1120 and 2240 gm ae/ha, compared to untreated plot
  effect on plant stands: did not significantly affect plant stands
[4]; 1120 g ae/ha
  Percent Plant Injury: 12%
[4]; 2240 g ae/ha
  Percent Plant Injury: 16%
[4]; 4480 g ae/ha
  Percent Plant Injury: 31%
